Where two headings read alike, the source gives them in different places. Blank lines part the entries; values can stand above or below the compound they belong to.
Legend:
[1] = test system: BG1LucERβc9 cells; assay: Antagonism of agonist-induced luciferase activity in BG1LucERβc9 cells; assay type: cell-based, human; settings: for inhibition of E2-inducible reporter gene expression in BG1LucERβc9 cells: Supplemental Figure S5
[2] = test system: BG1Luc4E2 cells; assay: Antagonism of agonist-induced luciferase activity in BG1Luc4E2 cells; assay type: cell-based, human; settings: p < 0.05, Student's t-test
[3] = test system: BG1Luc4E2 cells; assay: Luciferase induction in stably transfected BG1Luc4E2 cells; assay type: cell-based, human; settings: for luciferase activity in BG1Luc4E2 cells, initial library screen: 10 µM, normalized to 1 nM E2, single screen in triplicate; for luciferase activity in BG1Luc4E2 cells, initial library screen / MDL (minimal detection limit) [M], BG1Luc4E2 / EC50: 24 h; for Maximum Induction (RLU), BG1Luc4E2: at 30 µM Genistein, 10 µM Br-ERβ-041, 0.1 nM E2, 1 µM PPT; for EC50: read-out: EC50 [M], BG1Luc4E2
[4] = target: T1, ERα (Homo sapiens, UniProt P03372); assay: ER-responsive luciferase reporter; assay type: cell-based; settings: read-out: EC50 [M], ERα; SKBR3 cells, ERα expression plasmid, 24 h, mean ± SD of three experiments
T1 sequence (P03372 1-595): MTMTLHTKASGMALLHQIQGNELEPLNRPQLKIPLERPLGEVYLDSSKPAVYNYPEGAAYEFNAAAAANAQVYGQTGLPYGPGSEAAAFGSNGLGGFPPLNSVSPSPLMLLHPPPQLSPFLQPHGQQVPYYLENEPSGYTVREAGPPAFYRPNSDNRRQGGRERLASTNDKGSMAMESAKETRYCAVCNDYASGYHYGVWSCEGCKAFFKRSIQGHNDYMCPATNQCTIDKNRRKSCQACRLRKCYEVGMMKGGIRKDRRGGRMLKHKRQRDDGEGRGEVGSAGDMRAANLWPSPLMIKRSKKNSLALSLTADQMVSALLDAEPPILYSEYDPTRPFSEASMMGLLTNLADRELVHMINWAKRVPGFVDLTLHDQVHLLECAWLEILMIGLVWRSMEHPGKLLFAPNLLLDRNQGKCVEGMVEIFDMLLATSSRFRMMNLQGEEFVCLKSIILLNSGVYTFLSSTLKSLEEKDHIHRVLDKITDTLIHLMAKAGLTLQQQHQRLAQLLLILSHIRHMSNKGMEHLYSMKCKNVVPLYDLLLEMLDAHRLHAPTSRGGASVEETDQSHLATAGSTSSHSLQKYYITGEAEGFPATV

[5] = target: ERβ (Homo sapiens, UniProt Q92731); assay: ER-responsive luciferase reporter; assay type: cell-based; settings: SKBR3 cells, ERβ expression plasmid, 24 h, mean ± SD of three experiments
[6] = test system: BG1LucERβc9 cells; assay: Luciferase induction in stably transfected BG1LucERβc9 cells; assay type: cell-based, human; settings: for MDL (minimal detection limit) [M], BG1LucERβc9 / EC50: 24 h; for Maximum Induction (RLU), BG1LucERβc9: at 30 µM Genistein, 10 µM Br-ERβ-041, 0.1 nM E2, 1 µM PPT; for EC50: read-out: EC50 [M], BG1LucERβc9
[7] = mean ± SD of 8–16 experiments, genistein and Br-ERβ-041 at 50% of maximum E2 activity

ERβ, sequence (Q92731 whole entry): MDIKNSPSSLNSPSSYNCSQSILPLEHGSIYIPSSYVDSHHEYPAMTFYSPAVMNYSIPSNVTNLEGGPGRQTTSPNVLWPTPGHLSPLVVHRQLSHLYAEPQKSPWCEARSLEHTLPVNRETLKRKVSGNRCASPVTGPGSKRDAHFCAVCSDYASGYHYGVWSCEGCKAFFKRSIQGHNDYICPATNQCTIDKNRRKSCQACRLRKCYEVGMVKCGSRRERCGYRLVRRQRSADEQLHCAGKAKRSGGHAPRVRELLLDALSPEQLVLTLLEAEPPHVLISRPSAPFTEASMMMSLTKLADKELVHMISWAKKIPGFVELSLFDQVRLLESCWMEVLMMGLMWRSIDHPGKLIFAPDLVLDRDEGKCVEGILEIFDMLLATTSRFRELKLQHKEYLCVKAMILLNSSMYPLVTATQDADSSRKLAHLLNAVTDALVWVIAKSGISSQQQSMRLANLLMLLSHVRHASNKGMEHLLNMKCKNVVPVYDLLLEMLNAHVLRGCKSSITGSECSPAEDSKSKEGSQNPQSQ

SMILES: C[C@]12CC[C@@H]3c4ccc(O)cc4C[C@@H](CCCCCCCCC[S+]([O-])CCCC(F)(F)C(F)(F)F)[C@H]3[C@@H]1CC[C@@H]2O (stereo partly drawn) [fulvestrant, Fulvestrant]
- inhibition of E2-inducible reporter gene expression in BG1LucERβc9 cells [1]: inhibit E2-inducible reporter gene expression
- concentration-dependent antagonism of E2-induced luciferase activity, BG1LucERβc9 vs BG1Luc4E2 cells ([1]; comparison of both cell lines): comparable
- antagonism of Br-ERβ-041 induced activity in BG1Luc4E2 cells versus BG1LucERβc9 cells [2]: significantly more potent antagonist

SMILES: CC/C(=C(\c1ccc(O)cc1)c1ccc(OCCN(C)C)cc1)c1ccccc1 [Chemical 4-OHT, 4-hydroxy tamoxifen]
- inhibition of E2-inducible reporter gene expression in BG1LucERβc9 cells [1]: inhibit E2-inducible reporter gene expression

SMILES: CCNc1nc(Cl)nc(NC(C)(C)C#N)n1 [Chemical P12, cyanazine]
- luciferase activity in BG1Luc4E2 cells, initial library screen [3]: not inducing significant luciferase activity above background

- EC50 [4]: 2.5e-10 M
- EC50 [M], ERβ [5]: No induction
- EC50 [6, 7]: 3.2e-09 M
- EC50 [3, 7]: 6.7e-10 M
SMILES: CCCc1c(-c2ccc(O)cc2)nn(-c2ccc(O)cc2)c1-c1ccc(O)cc1 [PPT, 4,4’,4”-(4-Proply-[1H]-pyrazole-1,3,5-triyl)trisphenol]
- MDL (minimal detection limit) [M], BG1LucERβc9 [6]: 1e-10 M
- Maximum Induction (RLU), BG1LucERβc9 [6]: 7,017 ± 188 RLU
- MDL (minimal detection limit) [M], BG1Luc4E2 [3]: 1e-10 M
- Maximum Induction (RLU), BG1Luc4E2 [3]: 11,422 ± 356 RLU

- EC50 ([6]; Homo sapiens): 1.3e-11 M
- EC50 ([3]; Homo sapiens): 1.6e-11 M
SMILES: C[C@]12CC[C@@H]3c4ccc(O)cc4CC[C@H]3[C@@H]1CC[C@@H]2O [Chemical E2, 17β-estradiol]
- MDL (minimal detection limit) [M], BG1LucERβc9 [6]: 1e-12 M
- Maximum Induction (RLU), BG1LucERβc9 [6]: 5,236 ± 71 RLU
- MDL (minimal detection limit) [M], BG1Luc4E2 [3]: 3e-12 M
- Maximum Induction (RLU), BG1Luc4E2 [3]: 10,594 ± 250 RLU

SMILES: CC(C)(c1ccc(O)cc1)c1ccc(O)cc1 [Chemical P159, bisphenol A]
- luciferase activity in BG1Luc4E2 cells, initial library screen [3]: high activity

SMILES: O=c1c(-c2ccc(O)cc2)coc2cc(O)cc(O)c12 [Genistein, genistein]
- MDL (minimal detection limit) [M], BG1LucERβc9 [6]: 1e-08 M
- EC50 ([6]; Homo sapiens): 2e-08 M
- Maximum Induction (RLU), BG1LucERβc9 [6]: 8,804 ± 306 RLU
- MDL (minimal detection limit) [M], BG1Luc4E2 [3]: 1e-07 M
- ERα-dependent reporter gene induction in BG1Luc4E2 cells at low concentration ([3]; Br-ERβ-041 31.6 nM, genistein 10 nM, preliminary studies, data not shown): failed to induce
- EC50 ([3]; Homo sapiens): 1.7e-07 M
- Maximum Induction (RLU), BG1Luc4E2 [3]: 17,623 ± 575 RLU
